Structures can show the parent of a compound that is named as a salt.
Experiments:
[1] = molecular target: hERG potassium ion channels (Homo sapiens (Human), UniProt Q12809); experiment: Experiment 4: hERG potassium ion channel inhibition, automated patch clamp (Qpatch), CHO-hERG cells; assay type: cell-based; conditions: highest test concentration 40 μM
Protocol: Experiment 4: hERG Potassium Ion Channel Inhibition Assay
Experimental purpose: To test the effects of the test examples on hERG potassium ion channels using an automated patch clamp method.
4.1.1 CHO-hERG cells were cultured in a 175 cm^2 culture flask. When the cell density grew from 60% to 80%, the culture medium was removed. The cells were washed once with 7 mL of PBS (Phosphate Buffered Saline), and then 3 mL of Detachin cell dissociation reagent was added thereto for digestion.
4.1.2 After the digestion was completed, 7 mL of culture medium was added thereto for neutralization, then the mixture was centrifuged, the supernatant was aspirated, and then 5 mL of culture medium was added thereto for resuspension to ensure a cell density of 2×10^6/mL to 5×10^6/ML.
The single-cell high-resistance sealing and whole-cell modeling formation processes were all automatically completed by the Qpatch instrument of the Shanghai Institute of Materia Medica, Chinese Academy of Sciences. After obtaining the whole-cell recording modeling, the cells were clamped at −80 mV, and before a 5-second +40 mV depolarizing stimulus was given, a 50-millisecond −50 mV prepulse was first given, then the voltage was repolarized to −50 mV and holden for 5 seconds, and finally returned to −80 mV. This voltage stimulus was applied every 15 seconds, recorded for 2 minutes, and then the extracellular fluid was recorded for 5 minutes, and then the administration process was initiated, with compound concentrations starting at the lowest test concentration. The voltage stimulus was given for 2.5 minutes for each test concentration, and after all concentrations had been continuously given, 3 μM the positive control compound, Cisapride, was given. At least 3 cells were tested per concentration (n≥3).
4.4.1 The compound stock solution was diluted with DMSO, and 20 μL of DMSO solution was added with 10 μL of the compound stock solution, and serially diluted 3-fold to 6 DMSO concentrations.
4.4.2 4 μL of 6 DMSO concentrations of compounds were taken respectively and added to 396 μL of extracellular fluid, and the mixture was diluted 100-fold to 6 intermediate concentrations, then 80 μL of 6 intermediate concentrations of compounds was taken and added to 320 μL of extracellular fluid, and the mixture was diluted 5-fold to the final test concentration.
4.4.3 The highest test concentration was 40 μM, and the concentrations were respectively 40, 13.3, 4.4, 1.48, 0.494, and 0.165 μM for a total of six concentrations.
4.4.5 The preparation of the compound was completed by the Bravo instrument throughout the dilution process.
Experimental data were analyzed by GraphPad Prism 5.0 software.

human LSD1 = human LSD1 (Homo sapiens (Human), UniProt O60341); experiment: Experiment 1B: in vitro LSD1 enzyme activity, enzyme-coupled fluorescence (HRP/Amplex Red), H3(1-21)K4me2 peptide 10 μM (Reaction Biology); assay type: biochemical; conditions: histone H3(1-21)K4me2 peptide 10 μM
Protocol: Experiment 1B: Evaluation of Enzyme Activity
Testing unit: Reaction Biology Corp., USA.
The purpose of the assay was to test the in vitro inhibitory activity of the compounds against LSD1. The enzyme used in the assay was human LSD1, and the standard substrate was histone H3(1-21)K4me2 peptide (10 μM). The activity of the compounds was determined by the enzyme-coupling fluorescent method by the combined detection of H2O2 generated after the reaction of LSD1 by horseradish peroxidase (HRP) and the fluorescent reagent Amplex Red. Starting from 10 μM, the compounds were 3-fold diluted to detect the IC50 values of the compounds at 10 concentrations. The enzyme and substrate were incubated for 30 minutes before the compound was added to the substrate to start the reaction. Fluorescence detector: EnVision, excitation wavelength: Ex/Em=535/590 nM.

NCI-H1417 cells = experiment: Experiment 2: inhibition of NCI-H1417 cell proliferation (CellTiter-Glo, 10 days); assay type: cell-based; conditions: Homo sapiens, 240 h, 10 days incubation
Protocol: Experiment 2: Evaluation of Inhibitory Activity on NCI-H1417 Cell Proliferation
Experimental purpose: To test the inhibitory activity of test compounds on NCI-H1417 cell proliferation.
Experimental materials: RPMI 1640 medium, fetal bovine serum, Promega CellTiter-Glo reagent. The NCI-H1417 cell line was purchased from ATCC. Envision multilabel plate reader (PerkinElmer).
Experimental method: The compounds were dissolved to 10 mM and 5-fold diluted with DMSO in the compound plates, starting with a concentration of 2 mM. 3-fold serial dilution was performed with Bravo to 10 concentrations. Then 250 nL of the compound solution was transferred to the upper and lower double duplicate wells of a blank 384 cell plate with Echo. To each well containing the transferred 250 nL of DMSO/compound was added a cell suspension of 1000 cells/50 μL per well, and the compound was diluted 200-fold, i.e., resulting in an initial working concentration of 10 μM. The cell plate was incubated in a carbon dioxide incubator for 10 days. To the cell plate was added 25 μL of Promega CellTiter-Glo reagent per well and the mixture was shaken for 10 minutes at room temperature to stabilize the luminescence signal. Readings were performed on a PerkinElmer Envision multilabel plate reader.
Data analysis: Raw data were converted into inhibition rate using the formula: (Max−Ratio)/(Max−Min)*100%. The IC50 values could then be derived from four-parameter curve fitting. (derived from 205 mode in XLFIT5, iDBS)
The compounds were tested for inhibitory activity of compounds on NCI-H1417 cell proliferation, and the results are shown in Table 3.

hERG potassium ion channels, sequence (Q12809 whole entry): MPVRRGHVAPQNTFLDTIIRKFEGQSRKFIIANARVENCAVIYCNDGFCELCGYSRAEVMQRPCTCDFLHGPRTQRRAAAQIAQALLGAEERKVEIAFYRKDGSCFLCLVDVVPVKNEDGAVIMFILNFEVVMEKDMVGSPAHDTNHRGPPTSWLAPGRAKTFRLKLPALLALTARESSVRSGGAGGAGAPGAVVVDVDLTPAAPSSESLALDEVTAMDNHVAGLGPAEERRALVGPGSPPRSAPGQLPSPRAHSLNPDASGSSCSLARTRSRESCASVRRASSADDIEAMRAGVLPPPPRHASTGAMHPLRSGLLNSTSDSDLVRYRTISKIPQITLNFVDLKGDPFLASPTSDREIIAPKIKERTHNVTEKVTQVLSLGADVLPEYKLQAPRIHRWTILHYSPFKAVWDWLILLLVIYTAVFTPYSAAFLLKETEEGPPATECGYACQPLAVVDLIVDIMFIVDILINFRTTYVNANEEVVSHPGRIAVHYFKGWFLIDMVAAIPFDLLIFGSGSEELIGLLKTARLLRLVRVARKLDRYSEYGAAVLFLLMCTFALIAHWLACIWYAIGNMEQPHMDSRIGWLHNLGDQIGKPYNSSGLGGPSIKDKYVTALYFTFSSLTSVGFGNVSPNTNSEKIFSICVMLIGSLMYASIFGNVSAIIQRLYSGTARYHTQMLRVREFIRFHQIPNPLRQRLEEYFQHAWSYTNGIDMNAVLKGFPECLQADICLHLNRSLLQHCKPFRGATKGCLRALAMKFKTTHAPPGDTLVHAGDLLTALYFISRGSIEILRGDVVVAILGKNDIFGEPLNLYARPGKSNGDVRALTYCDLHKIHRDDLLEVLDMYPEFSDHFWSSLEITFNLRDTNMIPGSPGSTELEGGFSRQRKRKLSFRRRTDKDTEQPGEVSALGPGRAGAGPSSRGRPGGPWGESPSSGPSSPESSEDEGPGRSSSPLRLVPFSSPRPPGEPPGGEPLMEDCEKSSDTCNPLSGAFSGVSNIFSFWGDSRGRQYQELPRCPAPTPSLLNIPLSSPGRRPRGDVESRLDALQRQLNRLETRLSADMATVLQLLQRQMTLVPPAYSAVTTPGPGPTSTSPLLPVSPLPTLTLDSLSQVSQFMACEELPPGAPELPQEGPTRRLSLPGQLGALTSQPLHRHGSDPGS

| Structure (SMILES) | IC50 (human LSD1) [nM] | IC50 (NCI-H1417 cells) [nM] | IC50 [1] [µM] |
| --- | --- | --- | --- |
| N#Cc1ccc(-c2cc(C(=O)N3CCC[C@@H](N)C3)sc2-c2ccc3nn([C@H]4COCC[C@@H]4O)cc3c2)cc1F [Hydrochloride of compound 88] | 87.6 | 39.4 | 21.9 |
| N#Cc1ccc(-c2cc(C(=O)N3CCC[C@@H](N)C3)sc2-c2ccc3c(c2)CNC3=O)cc1F [Hydrochloride of compound 46] | 81.3 | 19.4 | > 40 |
| CC(C)(O)Cn1nnc2cc(-c3sc(C(=O)N4CCCNCC4)cc3-c3ccc(C#N)c(F)c3)c(F)c(F)c21 [Hydrochloride of compound 111] | 17.6 | 2.12 | 21.5 |
| CC(C)(O)Cn1nnc2cc(-c3sc(C(=O)N4C5CCC4C(N)C5)cc3-c3ccc(C#N)c(F)c3)ccc21 (stereo not drawn) [Hydrochloride of compound 16] | 7.51 | 0.17 | > 40 |
| N#Cc1ccc(-c2cc(C(=O)N3CCC[C@@H](N)C3)sc2-c2ccc3c(c2)nnn3[C@H]2COCC[C@@H]2O)cc1F [Hydrochloride of compound 90] | 37.3 | 37.6 | > 40 |
| N#Cc1ccc(-c2cc(C(=O)N3CCC[C@@H](N)C3)sc2-c2ccc3c(cnn3CC(O)CO)c2)cc1F (stereo partly drawn) [Hydrochloride of compound 62] | 30.1 | 11.2 | > 40 |
| Cn1cc2cc(-c3sc(C(=O)N4CCC[C@@H](N)C4)cc3-c3ccc(C#N)c(F)c3)cnc2n1 [Hydrochloride of compound 56] | 109 | 56.8 | > 40 |
| N#Cc1ccc(-c2cc(C(=O)N3CCC[C@@H](N)C3)sc2-c2ccc(OCC(O)CO)c(F)c2)cc1F (stereo partly drawn) [Hydrochloride of compound 54] | 49.9 | 5.11 | > 40 |
| CC(C)(O)CN1Cc2cc(-c3sc(C(=O)N4CCC[C@@H](N)C4)cc3-c3ccc(C#N)c(F)c3)ccc2C1=O [Compound 59] | 43.1 | 13.2 | > 40 |
| N#Cc1ccc(-c2cc(C(=O)N3CCC[C@@H](N)C3)sc2-c2cc3cn([C@H]4COCC[C@@H]4O)nc3cc2F)cc1F [Hydrochloride of compound 94] | 98.4 | 32.8 | > 40 |

Second part, led by results:

| IC50 (human LSD1) [nM] | IC50 (NCI-H1417 cells) [nM] | Structure (SMILES) | IC50 [1] [µM] |
| --- | --- | --- | --- |
| 13 | 0.83 | CC(C)(O)Cn1nnc2cc(-c3sc(C(=O)N4CCC[C@@H](N)C4)cc3-c3ccc(C#N)c(F)c3)c(F)c(F)c21 [Hydrochloride of compound 91] | > 40 |
| 16 | 10.3 | CC1(O)CC(n2cc3cc(-c4sc(C(=O)N5CCC[C@@H](N)C5)cc4-c4ccc(C#N)c(F)c4)ccc3n2)C1 (stereo partly drawn) [Hydrochloride of compound 86] | 21 |
| 15.2 | 1.61 | N#Cc1ccc(-c2cc(C(=O)N3CCC[C@@H](N)C3)sc2-c2ccc3nn(CC4(O)CC4)cc3c2)cc1F [Hydrochloride of compound 89] | 22.7 |
| 3.01 | 1.73 | N#Cc1ccc(-c2cc(C(=O)N3CCC[C@@H](N)C3)sc2-c2ccc3c(c2)nnn3CC2(O)CCC2)cc1F [Hydrochloride of compound 82] | 14.9 |
| 11.8 | 14.5 | N#Cc1ccc(-c2cc(C(=O)N3CCC[C@@H](N)C3)sc2-c2ccc3nn(C4CC(O)C4)cc3c2)cc1F (stereo partly drawn) [Hydrochloride of compound 73] | > 40 |

Source: patent US20240199571A1, “THIOPHENE COMPOUND AND APPLICATION THEREOF” (MEDSHINE DISCOVERY INC., priority 2021, published 2024)
